From US20230081426A1, “COMPOUNDS AND METHODS FOR KRAS MODULATION AND INDICATIONS THEREFOR” (Plexxikon Inc., priority 2020, published 2023)

What was measured:
[1] = biological target: T1, G12V-mutant human KRAS (amino acid residues 1-188) (Homo sapiens, UniProt P01116, G12V); assay: KRAS Binding Competition Assay (AlphaScreen; biotinylated KRpep-2d analogue), G12V; details: geometric mean, read-out: KRAS GMean IC50 (uM) MUTATION: G12V
T1 construct: G12V-mutant human KRAS (amino acid residues 1-188) with FLAG tag was purified from E. coli; made in house; host or cells: E. coli

[2] = biological target: T2, G12D-mutant human KRAS (amino acid residues 1-188) (Homo sapiens, UniProt P01116, G12D); assay: KRAS Binding Disruption Assay (AlphaScreen; biotinylated KRpep-2d analogue or RAF1-RBD), G12D; details: KRAS G12D; geometric mean; read-out: KRAS GMean IC50 (uM) MUTATION: G12D
T2 construct: G12D or G12C-mutant human KRAS (amino acid residues 1-188) with FLAG tag; made in house; host or cells: E. coli
Outline: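 AlphaScreen readout: signal falls as compound displaces biotinylated KRpep-2d analogue or RAF1-RBD from mutant KRAS. Both partners at 5-20 nM, 1 h binding at 25° C, then 10 μg/mL Anti-Flag acceptor and streptavidin donor beads for 1 h. IC50 by nonlinear regression of % inhibition.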

| Structure (SMILES) | IC50 [1] | IC50 [2] |
| --- | --- | --- |
| Cc1cccc2c1N(c1ccc3c(N4C[C@H]5CC[C@@H](C4)N5)nc(OC[C@@H]4CCCN4C)nc3c1F)CCC2 [P-0435, 4-((1R,5S)-3,8-diazabicyclo[3.2.1]octan-3-yl)-8-fluoro-7-(8-methyl-3,4-dihydroquinolin-1(2H)-yl)-2-(((S)-1-methylpyrrolidin-2-yl)methoxy)quinazoline] | 10 to 100 µM | 0.0001 to 10 µM |
| Cc1cccc2c1N(c1ncc3c(N4C[C@H]5CC[C@@H](C4)N5)nc(OC[C@@H]4CCCN4C)nc3c1F)CC(O)C2 (stereo partly drawn) [P-0436, 1-(4-((1R,5S)-3,8-diazabicyclo[3.2.1]octan-3-yl)-8-fluoro-2-(((S)-1-methylpyrrolidin-2-yl)methoxy)pyrido[4,3-d]pyrimidin-7-yl)-8-methyl-1,2,3,4-tetrahydroquinolin-3-ol] | 100 to 1000 µM | 0.0001 to 10 µM |
| Cc1cccc2c(Nc3ccc4c(N5C[C@H]6CC[C@@H](C5)N6)nc(OC[C@@H]5CCCN5C)nc4c3F)n[nH]c12 [P-0437, 4-((1R,5S)-3,8-diazabicyclo[3.2.1]octan-3-yl)-8-fluoro-N-(7-methyl-1H-indazol-3-yl)-2-(((S)-1-methylpyrrolidin-2-yl)methoxy)quinazolin-7-amine] | 100 to 1000 µM | 10 to 100 µM |
| CN1CCC[C@H]1COc1nc(N2C[C@H]3CC[C@@H](C2)N3)c2ccc(Nc3n[nH]c4c(F)cccc34)c(F)c2n1 [P-0438, 4-((1R,5S)-3,8-diazabicyclo[3.2.1]octan-3-yl)-8-fluoro-N-(7-fluoro-1H-indazol-3-yl)-2-(((S)-1-methylpyrrolidin-2-yl)methoxy)quinazolin-7-amine] | 10 to 100 µM | 10 to 100 µM |
| Oc1cc(-c2ccc3c(N4C[C@H]5CC[C@@H](C4)N5)nc(CCN4CCCC4)nc3c2F)c2ccccc2c1 [P-0439, 4-(4-((1R,5S)-3,8-diazabicyclo[3.2.1]octan-3-yl)-8-fluoro-2-(2-(pyrrolidin-1-yl)ethyl)quinazolin-7-yl)naphthalen-2-ol] | 10 to 100 µM | 0.0001 to 10 µM |
| C[C@H]1CCCN1CCc1nc(N2C[C@H]3CC[C@@H](C2)N3)c2ccc(-c3cc(O)cc4ccccc34)c(F)c2n1 [P-0440, 4-(4-((1R,5S)-3,8-diazabicyclo[3.2.1]octan-3-yl)-8-fluoro-2-(2-((S)-2-methylpyrrolidin-1-yl)ethyl)quinazolin-7-yl)naphthalen-2-ol] | 10 to 100 µM | 0.0001 to 10 µM |
| Fc1cc2c(N3C[C@H]4CC[C@@H](C3)N4)nc(OCC34CCCN3CCC4)nc2c(F)c1-c1c[nH]c2ccc(Cl)c(F)c12 [P-0441, 4-((1R,5S)-3,8-diazabicyclo[3.2.1]octan-3-yl)-7-(5-chloro-4-fluoro-1H-indol-3-yl)-6,8-difluoro-2-((tetrahydro-1H-pyrrolizin-7a(5H)-yl)methoxy)quinazoline] | 0.0001 to 10 µM | 0.0001 to 10 µM |
| Cc1cccc2cccc(-c3ccc4c(N5C[C@H]6CC[C@@H](C5)N6C(=O)CC#N)nc(OCC56CCCN5CCC6)nc4c3F)c12 [P-0442, 3-((1R,5S)-3-(8-fluoro-7-(8-methylnaphthalen-1-yl)-2-((tetrahydro-1H-pyrrolizin-7a(5H)-yl)methoxy)quinazolin-4-yl)-3,8-diazabicyclo[3.2.1]octan-8-yl)-3-oxopropanenitrile] | 0.0001 to 10 µM | 10 to 100 µM |
| CN1CCC[C@H]1COc1nc(N2C[C@H]3CC[C@@H](C2)N3)c2cnc(N3CC(=O)Nc4cccc(Cl)c43)c(F)c2n1 [P-0444, 4-(4-((1R,5S)-3,8-diazabicyclo[3.2.1]octan-3-yl)-8-fluoro-2-(((S)-1-methylpyrrolidin-2-yl)methoxy)pyrido[4,3-d]pyrimidin-7-yl)-5-chloro-3,4-dihydroquinoxalin-2(1H)-one] | 100 to 1000 µM | 10 to 100 µM |
| CN(C)Cc1nc(N2C[C@H]3CC[C@@H](C2)N3)c2cc(Cl)c(-c3c(O)cccc3F)c(F)c2n1 [P-0445, 2-(4-((1R,5S)-3,8-diazabicyclo[3.2.1]octan-3-yl)-6-chloro-2-((dimethylamino)methyl)-8-fluoroquinazolin-7-yl)-3-fluorophenol] | 10 to 100 µM | 10 to 100 µM |
| O=C1c2ccccc2C(=O)N1Cc1nc(N2C[C@H]3CC[C@@H](C2)N3)c2cc(Cl)c(-c3c(O)cccc3F)c(F)c2n1 [P-0446, 2-((4-((1R,5S)-3,8-diazabicyclo[3.2.1]octan-3-yl)-6-chloro-8-fluoro-7-(2-fluoro-6-hydroxyphenyl)quinazolin-2-yl)methyl)isoindoline-1,3-dione] | 10 to 100 µM | 10 to 100 µM |
| CN1CCC[C@H]1COc1nc(N2C[C@H]3CC[C@@H](C2)N3C(=O)CC2SC(=O)NC2=O)c2cc(Cl)c(-c3cc(O)cc4ccccc34)c(F)c2n1 (stereo partly drawn) [P-0447, 5-(2-((1R,5S)-3-(6-chloro-8-fluoro-7-(3-hydroxynaphthalen-1-yl)-2-(((S)-1-methylpyrrolidin-2-yl)methoxy)quinazolin-4-yl)-3,8-diazabicyclo[3.2.1]octan-8-yl)-2-oxoethyl)thiazolidine-2,4-dione] | 0.0001 to 10 µM | 0.0001 to 10 µM |
| Fc1cc2c(N3C[C@H]4CC[C@@H](C3)N4)nc(OCC34CCCN3CCC4)nc2c(F)c1-c1c[nH]c2cccc(F)c12 [P-0448, 4-((1R,5S)-3,8-diazabicyclo[3.2.1]octan-3-yl)-6,8-difluoro-7-(4-fluoro-1H-indol-3-yl)-2-((tetrahydro-1H-pyrrolizin-7a(5H)-yl)methoxy)quinazoline] | 10 to 100 µM | 0.0001 to 10 µM |
| CC(C(=O)N1[C@@H]2CC[C@H]1CN(c1nc(OCC34CCCN3CCC4)nc3c(F)c(-c4cc(O)cc5ccccc45)ccc13)C2)S(N)(=O)=O (stereo partly drawn) [P-0449, 1-((1R,5S)-3-(8-fluoro-7-(3-hydroxynaphthalen-1-yl)-2-((tetrahydro-1H-pyrrolizin-7a(5H)-yl)methoxy)quinazolin-4-yl)-3,8-diazabicyclo[3.2.1]octan-8-yl)-1-oxopropane-2-sulfonamide] | 0.0001 to 10 µM | 0.0001 to 10 µM |
| COC(=N)CC(=O)N1[C@@H]2CC[C@H]1CN(c1nc(OC[C@@H]3CCCN3C)nc3c(F)c(-c4cc(O)cc5ccccc45)c(Cl)cc13)C2 [P-0450, methyl 3-((1R,5S)-3-(6-chloro-8-fluoro-7-(3-hydroxynaphthalen-1-yl)-2-(((S)-1-methylpyrrolidin-2-yl)methoxy)quinazolin-4-yl)-3,8-diazabicyclo[3.2.1]octan-8-yl)-3-oxopropanimidate] | 10 to 100 µM | 10 to 100 µM |

Next, values leading:

| IC50 [1] | IC50 [2] | Structure (SMILES) |
| --- | --- | --- |
| 10 to 100 µM | 0.0001 to 10 µM | CN1CCC[C@H]1COc1nc(N2C[C@H]3CC[C@@H](C2)N3C(=O)CC(N)=O)c2cc(Cl)c(-c3cc(O)cc4ccccc34)c(F)c2n1 [P-0451, 3-((1R,5S)-3-(6-chloro-8-fluoro-7-(3-hydroxynaphthalen-1-yl)-2-(((S)-1-methylpyrrolidin-2-yl)methoxy)quinazolin-4-yl)-3,8-diazabicyclo[3.2.1]octan-8-yl)-3-oxopropanamide] |
| 0.0001 to 10 µM | 0.0001 to 10 µM | NS(=O)(=O)C1(C(=O)N2[C@@H]3CC[C@H]2CN(c2nc(OCC45CCCN4CCC5)nc4c(F)c(-c5cc(O)cc6ccccc56)ccc24)C3)CC1 [P-0452, 1-((1R,5S)-3-(8-fluoro-7-(3-hydroxynaphthalen-1-yl)-2-((tetrahydro-1H-pyrrolizin-7a(5H)-yl)methoxy)quinazolin-4-yl)-3,8-diazabicyclo[3.2.1]octane-8-carbonyl)cyclopropane-1-sulfonamide] |
| 100 to 1000 µM | 0.0001 to 10 µM | Cc1cccc2c1N(c1ncc3c(N4C[C@H]5CC[C@@H](C4)N5)nc(OCC45CCCN4CCC5)nc3c1F)CC(O)C2 (stereo partly drawn) [P-0453, 1-(4-((1R,5S)-3,8-diazabicyclo[3.2.1]octan-3-yl)-8-fluoro-2-((tetrahydro-1H-pyrrolizin-7a(5H)-yl)methoxy)pyrido[4,3-d]pyrimidin-7-yl)-8-methyl-1,2,3,4-tetrahydroquinolin-3-ol] |
| 100 to 1000 µM | 0.0001 to 10 µM | Cc1cccc2c1N(c1ccc3c(N4C[C@H]5CC[C@@H](C4)N5)nc(OCC45CCCN4CCC5)nc3c1F)CC(O)C2 (stereo partly drawn) [P-0454, 1-(4-((1R,5S)-3,8-diazabicyclo[3.2.1]octan-3-yl)-8-fluoro-2-((tetrahydro-1H-pyrrolizin-7a(5H)-yl)methoxy)quinazolin-7-yl)-8-methyl-1,2,3,4-tetrahydroquinolin-3-ol] |
| 10 to 100 µM | 0.0001 to 10 µM | CCCc1nc(N2C[C@H]3CC[C@@H](C2)N3)c2ccc(-c3cc(O)cc4ccccc34)c(F)c2n1 [P-0455, 4-(4-((1R,5S)-3,8-diazabicyclo[3.2.1]octan-3-yl)-8-fluoro-2-propylquinazolin-7-yl)naphthalen-2-ol] |
| 10 to 100 µM | 10 to 100 µM | OCc1nc(N2C[C@H]3CC[C@@H](C2)N3)c2cc(Cl)c(-c3c(O)cccc3F)c(F)c2n1 [P-0456, 2-(4-((1R,5S)-3,8-diazabicyclo[3.2.1]octan-3-yl)-6-chloro-8-fluoro-2-(hydroxymethyl)quinazolin-7-yl)-3-fluorophenol] |
| 10 to 100 µM | 10 to 100 µM | Cc1cccc2c(Nc3c(F)cc4c(N5C[C@H]6CC[C@@H](C5)N6)nc(OC[C@@H]5CCCN5C)nc4c3F)n[nH]c12 [P-0457, 4-((1R,5S)-3,8-diazabicyclo[3.2.1]octan-3-yl)-6,8-difluoro-N-(7-methyl-1H-indazol-3-yl)-2-(((S)-1-methylpyrrolidin-2-yl)methoxy)quinazolin-7-amine] |
| 100 to 1000 µM | 10 to 100 µM | CN1CCC[C@H]1COc1nc(N2C[C@H]3CC[C@@H](C2)N3)c2ccc(-n3nc(O)c4cccc(F)c43)c(F)c2n1 [P-0458, 1-(4-((1R,5S)-3,8-diazabicyclo[3.2.1]octan-3-yl)-8-fluoro-2-(((S)-1-methylpyrrolidin-2-yl)methoxy)quinazolin-7-yl)-7-fluoro-1H-indazol-3-ol] |
